From patent publication US9358226B2, “Triarylmethane analogs and their use in treating cancers” (Emory University, priority 2007, dated 2016)

What was measured:
ang-2 mRNA = experiment: Quantitative reverse transcription-PCR for ang-2 in bEnd.3 cells; assay type: cell-based, murine; conditions: 6.5 hours
Method: bEnd.3 cells were seeded equally into six T-75 flasks and 24 hours later were treated with 0, 1, 5, 10, 15, and 20 μM concentrations of gentian violet (Sigma-Aldrich, no. G2039) in ethanol for 6.5 hours. RNA was extracted and purified using TRI reagent (Sigma-Aldrich, T9424) and measured using spectrophotometer (Perkin-Elmer UV/VIS, Wellesley, Mass.). RNA (1 μg) was used for DNase Amplification (Invitrogen, no. 18068-015, Carlsbad, Calif.) followed by first-strand synthesis for reverse transcription-PCR (Invitrogen SuperScript, no. 12371-019). 96-well Optical Reaction Plate (ABI PRISM, no. 128, Applied Biosystems, Foster City, Calif.) was used for the reverse transcription-PCR reaction. A measure of 2.5 μl of template, which had been diluted 1:10 in crosslinked water, was used in each well and the experiment was performed in triplicate. Ang pt2 (Applied Biosystems, Taqman Gene Expression Assay, Mm00545822_ml) and 18S (Applied Biosystems Taqman Gene Expression Assay, Hs99999901_sl) primers were used along with crosslinked molecular grade water (Cellgro, Mediatech, Inc., Herndon, Va.) and master mix (Applied Biosystems TaqMan Fast Universal PCR Master Mix (2^x)). The reaction was run on the 7900 Applied Biosystems Reader for Absolute Quantification for 96-well plates. C values were analyzed by ΔΔCt method, and the standard error of the mean was calculated (FIG. 3b). The same protocol was used for treatment with brilliant green (Sigma, no. B6756), except that the concentrations used were 0, 0.1, 0.25, 0.5, and 0.75 μM (FIG. 3a).

[1] = ESR spectrum with superoxide dismutase; conditions: room temperature ESR, conditions as in Li et al.
Method: Li used ESR to confirm the production of NADPH-dependent.O2—by isolated endosomes (Li et al., Molecular and Cellular Biology, January 2006, p. 140-154, 26(1):140-154 (2006)). ESR assays were conducted at room temperature using a Bruker model EMX ESR spectrometer (Bruker). Vesicular fractions from each sample were mixed with the spin trap, 50 mM 5,5-dimethyl-1-pyrroline N-oxide (DMPO), in a total volume of 500 μl of PBS, pH 7.4. This solution contained iminodiacetic acid-chelating resin (10 ml/liter; Sigma-Aldrich). The reaction was initiated by adding NADPH to 100 μM and was immediately placed into the ESR spectrometer. DMPO-hydroxyl radical adduct formation was assayed for 10 min. Instrument settings were as follows: receiver gain, 1×10^6; modulation frequency, 100 kHz; microwave power, 40.14 mW; modulation amplitude, 1.0 G; and sweep rate, 1 G/s.

Nox4 = biological target: T1, Nox4 (Homo sapiens, UniProt Q9NPH5); experiment: H2O2 production, homovanillic acid assay, HEK293 Nox4-11 cells; assay type: cell-based; conditions: 1 hour 37° C.
T1 construct: expressed in transfected cells; host or cells: HEK293 Nox4-11 cells
T1 sequence (Q9NPH5 1-578): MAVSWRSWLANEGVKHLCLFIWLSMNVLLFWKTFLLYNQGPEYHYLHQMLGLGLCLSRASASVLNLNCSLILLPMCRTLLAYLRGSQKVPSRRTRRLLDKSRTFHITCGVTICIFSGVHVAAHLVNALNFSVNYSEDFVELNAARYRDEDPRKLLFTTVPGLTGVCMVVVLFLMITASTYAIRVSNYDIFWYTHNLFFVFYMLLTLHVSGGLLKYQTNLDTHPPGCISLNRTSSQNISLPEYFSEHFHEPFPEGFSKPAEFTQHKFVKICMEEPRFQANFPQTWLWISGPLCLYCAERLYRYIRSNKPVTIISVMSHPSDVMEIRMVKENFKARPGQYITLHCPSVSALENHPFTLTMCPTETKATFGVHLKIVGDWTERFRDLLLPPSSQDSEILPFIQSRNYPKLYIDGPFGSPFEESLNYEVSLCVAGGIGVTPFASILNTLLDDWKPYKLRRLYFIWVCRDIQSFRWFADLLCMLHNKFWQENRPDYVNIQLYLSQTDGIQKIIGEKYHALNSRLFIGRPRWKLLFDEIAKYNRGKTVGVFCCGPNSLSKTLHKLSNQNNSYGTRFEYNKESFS
T1 sequence (P13498 2-195 partner limits assumed): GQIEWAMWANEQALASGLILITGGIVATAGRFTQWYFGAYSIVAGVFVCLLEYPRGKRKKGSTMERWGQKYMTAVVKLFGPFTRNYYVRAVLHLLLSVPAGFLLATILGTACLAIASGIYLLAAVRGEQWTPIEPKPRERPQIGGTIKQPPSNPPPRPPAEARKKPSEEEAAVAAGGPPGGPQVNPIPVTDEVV
Method: After 1 hour incubation at 37° C., the reaction was stopped and H2O2 production was measured using the homovanillic acid assay. The ability of these drugs to inhibit production of H2O2 is shown as a percentage relative to the untreated control (100%). […] Optimal Nox2 activity requires phorbol 12-myristate 13-acetate stimulation whereas Nox4 activity is constitutive.
H2O2 release was measured using the homovanillic acid assay as described previously (Martyn, 2006). Briefly, 1.5-1.75×10^5 cells/well of a 12-well plate were seeded. The following day, cells were washed once with Hank's balanced salt solution and then preincubated for 15 minutes with either gentian violet (10-20 nM) or brilliant green (0.5-1.0 μM) in 1 ml of media. The cells were then washed once with Hank's balanced salt solution. Gentian violet or brilliant green was added at the same concentrations as in pretreatment to 0.5 ml of homovanillic acid assay solution (100 μM homovanillic acid assay, 4 U/ml horseradish peroxidase in Hank's balanced salt solution with Ca^2+ and Mg^2+) and incubated with the cells for 1 hour at 37° C. Cos-phox cells were additionally stimulated with 0.4 μg/ml phorbol 12-myristate 13-acetate. […] Fluorescence was read on a BioTek Synergy HT (BioTek Instruments Inc., Winooski, Vermont, […].) with an excitation of 320 nm and emission of 440 nm.

inhibition of Nox4 activity (H2O2 production) (Nox4): inhibited
SMILES: CN(C)c1ccc(C(=C2C=CC(=[N+](C)C)C=C2)c2ccc(N(C)C)cc2)cc1 [Gentian Violet (GV), hexamethyl pararosaniline chloride]
ang2 expression compared to control (ang-2 mRNA; 1 and 5 μM): increased
inhibition of ang-2 mRNA (ang-2 mRNA; higher concentrations (above 5 μM, up to 20 μM)): 70-90%
radical formation with superoxide (ESR) [1]: appear to form a radical by reacting with superoxide
